Here are results for 26 molecules from BindingDB's records for doi:10.1021/jm00082a020 (Bristol-Myers Squibb Pharmaceutical Research Institute, 1992).

The nature of one assay: In vitro ability to displace the specific binding of [3H]diltiazem to diltiazem receptor in guinea pig skeletal muscle.
By Kd is commonly meant a measure of binding affinity in units of concentration. A higher Kd goes with lower affinity. Take `CCc1ccc([C@@H]2Cc3c(cccc3C(F)(F)F)N(CCN(C)C)C(=O)[C@@H]2C)cc1`: the affinity, expressed as Kd, was 1 µM. That is a single-digit micromolar value.
Same read-out and setting: the value for `CNc1ccc([C@@H]2Cc3c(cccc3C(F)(F)F)N(CCN(C)C)C(=O)[C@@H]2C)cc1` was 0.57 µM; that for `CNCCN1C(=O)[C@H](OC(C)=O)[C@H](c2ccc(OCCOC)cc2)Cc2c1cccc2C(F)(F)F` was 5.8 µM; that for `COc1ccc([C@@H]2Cc3c(ccc(Br)c3OC)N(CCN(C)C)C(=O)[C@@H]2C)cc1` was 0.12 µM.
Still for that read-out and setting: for `COc1ccc([C@@H]2Cc3c(OC)cccc3N(CCN(C)C)C(=O)[C@@H]2C)cc1` the value was 0.4 µM.
With `CNC(=O)CN1C(=O)[C@H](OC(C)=O)[C@H](c2ccc(OC)cc2)Cc2c1cccc2C(F)(F)F`, the dissociation constant (Kd) worked out at 15 µM.
In turn, `COc1ccc([C@@H]2Cc3c(cccc3C(F)(F)F)N(CC(C)N(C)C)C(=O)[C@@H]2C)cc1` (stereo partly specified) had a Kd of 0.32 µM.
The molecule `CCCN(C)CCN1C(=O)[C@H](OC(C)=O)[C@H](c2ccc(OC)cc2)Cc2c1cccc2C(F)(F)F` registered a Kd of 0.52 µM.
As for `COc1ccc([C@@H]2Cc3c(cccc3C(F)(F)F)N(CC[N+](C)(C)C)C(=O)[C@@H]2C)cc1`, binding was put at a Kd of 0.84 µM. Compared with the last molecule, the Kd is about 1.6-fold higher.
Still for that read-out and setting: the value for `C[C@H]1C(=O)N(CCN(C)C)c2cccc(C(F)(F)F)c2C[C@H]1c1ccc(O)cc1` was 1.6 µM.
`COc1ccc([C@@H]2Cc3c(cccc3C(F)(F)F)N(CCN(C)C)C(=O)[C@@H]2C)cc1OC`: the Kd turned out to be 2 µM.
On the same count and under the same terms, for `CSc1ccc([C@@H]2Cc3c(cccc3C(F)(F)F)N(CCN(C)C)C(=O)[C@@H]2C)cc1` the value was 1.1 µM.
Consider `CCC[C@H]1C(=O)N(CCN(C)C)c2ccccc2C[C@H]1c1ccc(OC)cc1`, for which the Kd was found to be 0.25 µM.
On the same count and under the same terms, for `COc1ccc([C@@H]2Cc3c(cccc3C(F)(F)F)N(CCN(C)C(C)=O)C(=O)[C@@H]2O)cc1` the value was 13 µM; for `COc1ccc([C@@H]2Cc3ccccc3N(CCN(C)C)C(=O)[C@@H]2OC(C)=O)cc1`, 5.1 µM.
The molecule `COc1ccc([C@@H]2Cc3c(cccc3C(F)(F)F)N(CCN(C)C)C(=O)[C@@H]2O)cc1` came in with a Kd of 0.66 µM.
The molecule `C=CCN(C)CCN1C(=O)[C@H](OC(C)=O)[C@H](c2ccc(OC)cc2)Cc2c1cccc2C(F)(F)F` had a dissociation constant Kd of 0.42 µM.
`COc1ccc([C@@H]2Cc3c(ccc(Br)c3OC)N(CCN(C)C)C(=O)[C@@H]2OC(C)=O)cc1` had a Kd of 0.12 µM. This Kd is about 3.5-fold lower than that of the molecule before.
In turn, `CC[C@H]1C(=O)N(CCN(C)C)c2cccc(C(F)(F)F)c2C[C@H]1c1ccc(OC)cc1` registered a Kd of 0.6 µM.
Consider `C#CCN(C)CCN1C(=O)[C@H](OC(C)=O)[C@H](c2ccc(OC)cc2)Cc2c1cccc2C(F)(F)F`, for which the Kd worked out at 1.8 µM.
The molecule `COc1ccc([C@@H]2Cc3c(cccc3C(F)(F)F)N(CCN(C)C(C)C)C(=O)[C@@H]2C)cc1` came in with a dissociation constant (Kd) of 0.13 µM.
Still for that read-out and setting: the value for `COc1ccc([C@@H]2Cc3c(OC)cccc3N(CCN(C)C)C(=O)[C@@H]2OC(C)=O)cc1` was 1.8 µM.
Still for that read-out and setting: for `CNCCN1C(=O)[C@H](OC(C)=O)[C@H](c2ccc(OC)cc2)Cc2c1cccc2C(F)(F)F` the value was 0.16 µM.
Still for that read-out and setting: the value for `COc1ccc([C@@H]2Cc3c(cccc3C(F)(F)F)N(CCN(C)CCCCc3ccccc3)C(=O)[C@@H]2OC(C)=O)cc1` was 0.22 µM; that for `COc1ccc([C@@H]2Cc3c(C(=O)OCc4ccccc4)cccc3N(CCN(C)C)C(=O)[C@@H]2OC(C)=O)cc1` was 1.4 µM.

Experiment in another assay: as above
This is another data set of the same source.
`COc1ccc([C@@H]2Cc3c(cccc3C(F)(F)F)N(C(C)CN(C)C)C(=O)[C@@H]2C)cc1` (stereo partly specified) gave a Kd of 0.54 µM.
